Results taken from PubChem BioAssay AID2305 (GlaxoSmithKline (GSK), 2010).
“And” between values parts separate entries of the source, which are not always exact repeats. Equal values may be shown once.

test system: P. falciparum 3D7 growth, pLDH absorbance; assay: P. falciparum 3D7 growth inhibition, dose response, strain 3D7 (AID 2305)

Structure (SMILES) | IC50
COC(=O)c1ccccc1N1CCN(CCCCNC(=O)c2ccc(NC(=O)c3cc(Cl)cc(Cl)c3)cc2)CC1 | 0.56 µM
COc1cc(Nc2ccnc3cc(-c4ccncc4)ccc23)cc(OC)c1OC | 1.08 µM
CCc1ccc(C2CCN(CCCCNC(=O)c3ccc(-c4ccc(C(F)(F)F)cc4)cc3)CC2)c(OCCO)c1 | 0.41 µM
O=S(=O)(NC1CCN(c2ccnc3ccccc23)C1)c1ccc(OC(F)(F)F)cc1 (centres undefined) | 1.08 µM
C(=NNc1nc2ccccc2[nH]1)c1ccccc1OCc1ccccc1 | 0.26 µM
O=C(NC(c1ccccc1)c1ccc2cccnc2c1O)c1ccccc1 (centres undefined) | 0.43 µM
Cc1nc(N)nc(N)c1OCCCCCCOc1ccccc1 | 0.24 µM
CC(C)CNCc1ccc(-c2cccc(CN(C(=O)CCC3CCCC3)C3CCN(Cc4ccccc4)CC3)c2)cc1 | 0.8 µM
N#Cc1cccc(NC(=O)Nc2ccc(-c3csc(-c4nc5ccccc5[nH]4)c3)cc2)c1 | 0.15 µM
CON=Cc1ccn(-c2ccc(O)c3c2C[C@H]2C[C@H]4[C@H](N(C)C)C(=O)C(C(N)=O)=C(O)[C@@]4(O)C(=O)C2=C3O)c1 | 0.77 µM
NC1CCCN(Cc2ccc(-c3cccc(-c4nc5ccccc5[nH]4)c3)cc2)C1 (centres undefined) | 0.72 µM
Cc1sc2ncnc(Sc3nnc(N)s3)c2c1C | 0.4 µM
O=C(/C=C/c1ccc(Cl)c(Cl)c1)NCCC1CCC(N2CCC(c3c[nH]c4ccc(O)cc34)CC2)CC1 (centres undefined) | 0.76 µM
CCOc1ccc2nc(C)cc(NN=Cc3ccccc3Cl)c2c1 | 0.19 µM
COc1ccc2nccc([C@@H](O)CN3CC[C@H](NCc4ccc5c(n4)NC(=O)CS5)[C@H](F)C3)c2c1 | 0.91 µM
CCCCCCN1CCC(NCc2ccc(C)cc2)CC1 | 0.86 µM
NC1=NC2(CCCC2)N(c2ccc(Cl)cc2)C(N)=N1 | 0.41 µM
CC(=O)N(C)C1CCN(Cc2cccc(-c3ccc(-c4nc5ccc(F)cc5[nH]4)cc3)c2)C1 (centres undefined) | 0.96 µM
CCC[C@@H]([C@@H](CC(C)C)C(=O)N[C@@H](CCCCNC(=O)OCc1ccccc1)C(=O)Nc1ncccn1)N(O)C=O | 0.06 µM
CC(C(=O)N1CCCC1)N1CCN(C(c2ccccc2)c2ccccc2)CC1 (centres undefined) | 1.1 µM
CC1=CC(=O)[C@@H](O)[C@]2(C)[C@H]3[C@@]4(O)OC[C@@]35[C@@H](C[C@@H]12)OC(=O)C[C@H]5[C@@H](C)[C@H]4O | 0.35 µM
COc1cccc(-c2ccc(NC(=O)C3CCCN(Cc4cccc(OC)c4O)C3)cc2)c1 (centres undefined) | 0.85 µM
CC(C)(C)c1nn(-c2ccccc2)c2[nH]c(=O)c(CNCc3ccccc3)cc12 | 1.05 µM
CN(C)c1ccc(-c2csc(C(=O)NC3CCN(Cc4ccc(C(C)(C)C)cc4)C3)c2)cc1 (centres undefined) | 0.95 µM
COc1c(F)cc(CC(C)NCC(O)c2cccc(Cl)c2)cc1F (centres undefined) | 1.16 µM

Structure (SMILES) | IC50
Cc1cc(NC(=O)CCCN2CCN(c3cccc(Cl)c3Cl)CC2)ccc1N1CCN(C(C)C)CC1 | 0.76 µM
CN(C)c1ccc(CN2CCC(CNC(=O)c3cc(-c4ccccc4F)cs3)C2)cc1 (centres undefined) | 0.91 µM
Cc1ccc(CCC(C)NCC(O)c2cccc(C(F)(F)F)c2)cc1 (centres undefined) | 0.56 µM
OCCN1CCN(C2Cc3ccc(F)cc3Sc3ccc(Cl)cc32)CC1 (centres undefined) | 0.88 µM
N=C(N)c1ccc(C(=O)Nc2cccc(C(=N)N)c2)cc1 | 1.04 µM
CC1(C)S(=O)(=O)CC(O)CS1(=O)=O | 0.47 µM
O=C(Nc1ccccc1)Nc1ccc(-n2ccc(C(F)(F)F)n2)cc1 | 0.63 µM
COc1ccc(-c2cnc3[nH]cc(-c4ccc(CCC(=O)O)cc4)c3c2)cn1 | 0.77 µM
O=C(Nc1ccc(NC2=NCCN2)cc1)c1ccc(C(=O)Nc2ccc(NC3=NCCN3)cc2)cc1 | 0.65 µM
O=C(O)c1cccc2c(-c3ccncc3)cccc12 | 0.94 µM
Cc1[nH]nc2cc(Nc3ccnc(Nc4ccc(CN5CCOCC5)cc4)n3)ccc12 | 0.95 µM
Cc1ccc(NC(=O)c2ccc(CN3CCCN(Cc4cccc(O)c4)CC3)cc2)cc1 | 0.74 µM
CNCCCn1c(N(C)C)nc2cc(-n3cnc4cc(-c5ccc(Cl)cc5)sc4c3=O)ccc21 | 1.14 µM
CC(C)Cc1cn(-c2nc(-c3nc4ccccc4[nH]3)cs2)c2ccncc12 | 0.09 µM
CC(=O)c1c(C)[nH]c(C(=O)Nc2ccc(-c3nc4ccc(C)cc4s3)cc2)c1C | 0.84 µM
CC(C)CNCc1cccc(-c2ccc(CN(CCCN3CCN(C)CC3)C(=O)/C=C/c3ccccc3)cc2)c1 | 0.86 µM
CCCCCCCCS(=O)(=O)NCCCC1CCN(CCCCCNC(=O)C=Cc2ccc(Cl)c(Cl)c2)CC1 | 0.86 µM
O=C(CCc1ccc(Cl)cc1Cl)NC1CCC(CN2CCC(c3c[nH]c4ccccc34)CC2)CC1 (centres undefined) | 0.9 µM and 0.22 µM
Clc1ccc(-c2ccc(C=NNc3nc(Nc4ccccc4)nc(Nc4ccccc4)n3)o2)cc1Cl | 0.74 µM
Cc1cc(N[C@@H](CC(C)C)C(=O)NCCOc2ccccc2)nc(NCCc2ccccc2)n1 | 1.51 µM
C[C@@H]1CN(c2cnn(Cc3ccc(NC(=O)Nc4cccc(C(F)(F)F)c4)cc3)c(=O)c2Cl)C[C@H](C)N1 | 0.94 µM
CCN1CCN(c2cc(C)c3cc(NC(=O)c4cccc([N+](=O)[O-])c4)ccc3n2)CC1 | 0.52 µM
O=C(Nc1ccc(OC(F)(F)F)cc1)Nc1ccc([N+](=O)[O-])cc1 | 0.88 µM
C=CCc1ccccc1OCC(O)CN(C1CCCCC1)C1CCCCC1 (centres undefined) | 0.81 µM
Cc1ccccc1C1CCN(C2CCC(NC(=O)/C=C/c3cccc(F)c3F)CC2)CC1 (centres undefined) | 1.15 µM

Structure (SMILES) | IC50
COc1ccc2nccc(N3CCC(CCNCc4ccc5c(n4)NC(=O)CS5)CC3)c2c1 | 0.21 µM
CN1CCCc2cc(NC(=O)C=Cc3ccc(-c4ccc(F)cc4F)o3)ccc2C1 | 0.78 µM
N=C(N)CCN(Cc1ccc(Cl)cc1)c1ccc(Cl)cc1 | 1.06 µM
Cc1cc(NC(=O)[C@@H](Nc2ccc(C#N)c3ccccc23)C2CCCCC2)ccc1F | 0.89 µM
CCCC(CNCc1ccc(Cl)c(C(F)(F)F)c1)CNc1nc2ccncc2[nH]1 (centres undefined) | 0.29 µM
Cc1cc(N2CCCCC2)nc2ccc(NC(=O)c3cccc([N+](=O)[O-])c3)cc12 | 0.38 µM
O=S(=O)(NCCN1CCCC1)c1ccc(-c2cccc(CNC3Cc4ccccc4C3)c2)s1 | 0.75 µM
CCOc1cc(CC)ccc1C1CCN(CCCCNC(=O)c2ccc(NC(=O)c3ccc(Cl)cc3)cc2)CC1 | 0.74 µM
CCCCCN1CCC(NS(=O)(=O)c2cccc(C(=O)Nc3ccc(Cl)cc3)c2)CC1 | 0.92 µM
COc1ccc(-c2ccc(CN(C)C3CCC(NC(=O)c4cc5ccccc5[nH]4)CC3)cc2)cn1 (centres undefined) | 0.87 µM
Oc1ccc2[nH]c(-c3cccs3)nc2c1CN1CCC(O)(c2ccccc2)CC1 | 0.78 µM
COc1ccc2c(Nc3ccc(N4CCN(C)CC4)cc3)cc(C)nc2c1 | 0.72 µM
O=C(NC=Nc1cc([N+](=O)[O-])c(-c2cccnc2)n1-c1ccc(O)cc1)c1ccccc1 | 0.3 µM
O=C(CSc1nn(-c2ccccc2)c(=S)s1)c1c[nH]c2ccccc12 | 1.09 µM
CCCC(=O)c1c(O)c2ccccc2oc1=O | 0.26 µM
CNC(=O)c1cc(S(=O)(=O)N2CCN(c3ccccn3)CC2)cs1 | 0.67 µM
Cc1cc(Cl)ccc1N(Cc1ccccc1)c1ccnc(Cl)n1 | 0.86 µM
Cc1nc(-c2nc(NCc3ccc4c(c3)OCO4)ncc2-c2ccsc2)sc1C | 0.1 µM
CC(C)CCCC(C)(C)NC[C@@H](O)[C@H](Cc1ccccc1)NC(=O)c1cc(NC(C)C)cc(N2CCCCS2(=O)=O)c1 | 0.21 µM
Cc1cc2c(cc1C(F)(F)F)N(C(=O)Nc1cnc(OCCN(C)C)c(C(F)(F)F)c1)CC2 | 0.97 µM
Cc1cccc2[nH]c(-c3ccc(-c4cccc(CN5CCN(CCN6CCOCC6)CC5)c4)s3)nc12 | 0.15 µM
CCN1CCC(N(Cc2ccc(-c3ccc(C(F)(F)F)cc3)cc2)C(=O)Cn2c(SCc3cccc(F)c3F)cc(=O)c3ccccc32)C1 (centres undefined) | 0.88 µM
NC(=O)c1ccc2[nH]cc(C3CCN(CC4CCC(NC(=O)/C=C/c5ccc(Cl)c(Cl)c5)CC4)CC3)c2c1 (centres undefined) | 0.87 µM and 0.76 µM
Cc1ccccc1C1CCN(C2CCC(NC(=O)/C=C/c3ccc(Cl)cc3)CC2)CC1 (centres undefined) | 0.8 µM
O=C(/C=C/c1ccc(C(F)(F)F)cc1)NCCCCCN1CCN(C(=O)Nc2ccc(Cl)cc2)CC1 | 1.01 µM

Structure (SMILES) | IC50
O=C(NCc1ccc(F)cc1)Nc1ccc(-c2cccc(-c3nc4ccc(C(F)(F)F)cc4[nH]3)c2)cc1 | 0.95 µM
O=C(Nc1cc(Cl)cc(Cl)c1)Nc1ccnc2ccccc12 | 0.75 µM
NC(=O)c1cccc(CN2Cc3ccccc3OC3(CCN(Cc4c[nH]c5cnccc45)CC3)C2)c1 | 1.06 µM
Cc1cc(N(CCO)CCCN2CCCCC2)nc(Nc2ccc(Cl)cc2)n1 | 0.55 µM
Fc1ccccc1C=NNc1ccnc2ccccc12 | 0.89 µM
CN(C)CCCN(C)c1cccc2c1nc(-c1cccnc1)n2CCNCc1ccccc1 | 1.39 µM
OC1(c2ccc(Cl)c(C(F)(F)F)c2)CCN(CCOC2c3ccccc3CSc3ccc(Cl)cc32)CC1 (centres undefined) | 0.8 µM
CCCN(CCCCCCNCCc1ccc(Cl)cc1)CCc1ccc(O)c(O)c1 | 0.94 µM
CCn1c(-c2nonc2N)nc2c(C#CC(C)(C)O)ncc(OCCNCCc3ccc(OC)cc3)c21 | 0.96 µM
O=S(=O)(Nc1ccc(CCN2CCCCC2CCN2CCCC2)cc1)c1ccc(-c2ccccc2)cc1 (centres undefined) | 0.93 µM
NC(N)=Nc1nc(-c2cccc(NCCCCCCCCON3C(N)=NC(N)=NC34CCCCC4)c2)cs1 | 0.23 µM
COc1cc(Cc2cnc(N)nc2N)cc(OC)c1OCCCCCN1C(=O)c2ccccc2C1=O | 0.62 µM
CCCN(CCCCCCN(CCC)CCc1ccc(O)c(O)c1)CCc1ccc(O)cc1 | 1.01 µM
CNC(=O)c1cnc(Nc2ccc(N3CCOCC3)cc2)nc1Nc1cccc(O)c1 | 0.81 µM
O=C(C=Cc1ccc(Cl)c(Cl)c1)NCCCCCN1CCCC(CCCNS(=O)(=O)c2cccc3cccnc23)C1 (centres undefined) | 1 µM
CN1CC=C(c2c[nH]c3ccc(Sc4ccccc4)cc23)CC1 | 0.36 µM
CN(CCON1C(N)=NC(N)=NC1(C)C)c1ccccc1 | 0.02 µM
O=C(NC1CCC(CN2CCC(c3c[nH]c4ccccc34)CC2)CC1)c1cc(-c2cccc(Cl)c2)n(-c2ccc(Cl)cc2Cl)n1 (centres undefined) | 1.08 µM
CC1=C(C(=O)Nc2cc3cn[nH]c3cc2F)C(c2cccc(O)c2F)CC(=O)N1 (centres undefined) | 0.63 µM
COc1cccc(CNC(=O)c2ccnc(-c3cccc(CN(C)C4CCN(C)CC4)c3)c2)c1 | 0.83 µM
Oc1c(CN2CCCC(C(F)(F)F)C2)cc(Cl)c2ccccc12 (centres undefined) | 1.57 µM
O=C(N[C@@H](Cc1ccccc1)C(=O)NCCN1CCOCC1)c1ccc(O)c(-c2ccc(Cl)c(Cl)c2)c1 | 0.92 µM
O=C(NCCNc1ccnc(Nc2ccc(F)cc2)n1)c1cc2ccccc2s1 | 0.75 µM
Cn1nccc1C(=O)NCCNCc1ccc(-c2ccc(-c3nc4ccc(C(F)(F)F)cc4[nH]3)s2)cc1 | 0.19 µM
